Entries after “also recorded” stand apart in the source; their conditions may differ.
What was measured:
[1] = COS release using membrane inlet mass spectrometry (MIMS); type: physicochemical; details: precursor 50 μM, NAC 0.25 mM (5 equiv.), pH 7.4 phosphate buffer saline with DTPA, 37° C.
Description: (§1) COS was analyzed using a Hiden HPR-40 MIMS system with a sample cell and membrane probe that have been optimized to detect gases dissolved in aqueous solution as described previously. Cline et al., 2011. A stock solution of N-acetyl-cysteine (25 mM) was prepared in DI water. RSSH precursor stock solutions (5 mM) were prepared in DMSO. These solutions were degassed by purging with nitrogen for 10 min before COS release analysis. Typically, 20 mL phosphate buffer solution (10 mM) was added to the sample cell, degassed and purged with a continuous flow of argon for 15 min. N-acetyl cysteine (200 μL, 25 mM) and RSSH precursor (200 μL, 5 mM) were then injected using a gas tight syringe and ion current at m/z 60 (COS^+) were collected for 2 h (source pressure was approximately 1×10^−7 to 5×10^−7 Torr).
as §1, with “(COS*)” for “(COS^+)”

H9c2 cells = test: H9c2 cell protection from H2O2-mediated oxidative stress, SYTOX Green nucleic acid stain; type: cell-based, rat; details: 2 h pretreatment (150 μM for 8), then H2O2 200 μM
Description: Cells were seeded at a density of 1×10^4 cells/well. After 24 h, precursor 7b or byproduct 2b is added in 20 μL volumes using DMSO: H2O (<0.01% DMSO). Cells were incubated for 2 h before media was removed and the cells gently washed with PBS (pH 7.4). Then, 180 μL of fresh media and 20 μL H2O2 diluted in H2O were added before cells were incubated for an additional 1 h. After removing this media, 100 μL of media containing 3 μM SYTOX™ Green nucleic acid stain was added, and the cells incubated for 2 h before fluorescence readings were obtained at 485Ex/538Em (Step 1). Finally, an additional 100 μL of media containing 3 μM SYTOX™ and 0.2% Triton X-100 was added in order to permeabilize all cells and incubated for 1 h before fluorescence values measured (Step 2). The relative % cells surviving was calculated as a 100% minus the ratio of the fluorescence value of Step 1 over Step 2 (% cells surviving=100%−(FL538 (Step 1)/FL538 (Step 2)). Fluorescence values for vehicle-treated, non-H2O2-exposed wells were treated as background cell death and this value is added to the % cell survival for each subsequent group.
See Hofgaard et al., 2006, for general procedures. […] After removing this media, 100 μL of media containing 3 μM SYTOX® Green nucleic acid stain was added, and the cells incubated for 2 h before fluorescence readings were obtained at 485Ex/538Em (Step 1). […]

[2] = Stability and intermolecular reactivity of control compound 8 by UPLC-MS; type: physicochemical; details: 100 μM, 37° C.
Description: FIG. 11 is an UPLC-MS chromatogram of 8 (100 μM) incubated in pH 7.4 ammonium bicarbonate buffer at 37° C. Aliquots taken at various times were quenched with 1% formic acid and analyzed by UPLC-MS.
Aliquots (200 μL) were taken at specified time points, quenched with 1% formic acid (200 μL) and analyzed using UPLC-MS.
FIG. 13 is UPLC-MS chromatograms of control compound 8 (100 μM) reaction with NAC (500 μM) in pH 7.4 ammonium bicarbonate (50 mM) with the metal chelator DTPA (100 μM) at 37° C. Aliquots (200 μL) were taken at specified time points, quenched with 1% formic acid (200 μL) and analyzed using UPLC-MS;

## CCCN(C)C(=O)SSC(C)(C)C(NC(C)=O)C(=O)OC (centres unmarked) [control compound 8, Methyl 2-acetamido-3-methyl-3-((methyl(propyl)carbamoyl)disulfaneyl)butanoate]
[1]
  COS release (m/z=60 signal): Relatively slow COS release
H9c2 cells
  protection against H2O2-mediated toxicity (SYTOX): protective effects against H2O2-mediated toxicity, but to a lesser extent compared with 7b
[2]; NAC 500 μM, pH 7.4 ammonium bicarbonate buffer
  RSSH release via intermolecular reaction with thiol: does not release RSSH via intermolecular reactions
[2]; n-BuNH2 500 μM (5 equiv.), pH 7.4 ammonium bicarbonate:acetonitrile (9:1), at least over 2 h
  reaction with n-butylamine (RSSH release via intermolecular reaction): no reactivity; also recorded: lack of reaction
[2]; pH 7.4 ammonium bicarbonate buffer
  stability / RSSH release at pH 7.4: No RSSH release; also recorded: stable under these conditions and does not produce RSSH
